In patent publication US6395896B2, “Pyridazine derivatives, manufacturing method and related composition” (Shiseido Co., Ltd., priority 1999, dated 2002):

Experiment: Colorant stabilization effect (photostabilizer, sunlight exposure)
Set-up: key to Sunlight exposure (80 MJ) Appearance: A: No change; B: No almost change; C: Yes change; key to Sunlight exposure (80 MJ) ΔE: ΔE color difference (Lab) vs. color before sunlight exposure
Method: First of all, the photostabilization effect and appearance change of a composition in each pigment were studied by the following evaluation formulation.
Each test sample was prepared. Observation of appearance change (visual evaluation) and measurement of color difference (ΔE) were carried out in samples exposed to sunlight exposure (around 80 MJ).
Color difference was measured by Lab coordinate system with spectrophotometer. Color difference was calculated on the basis of the color before sunlight exposure. Namely, from measured value (L1,a1,b1) before sunlight exposure, color difference (ΔE) was calculated by following formula.

[1] = Red No. 227 0.0001 wt % + Yellow No. 5 0.0001 wt %, photostabilizer 0.05 wt %
[2] = Red No. 227 0.0001 wt % + Yellow No. 5 0.0001 wt %, photostabilizer 0.1 wt %
[3] = Red No. 227 0.0001 wt % + Yellow No. 203 0.0001 wt %, photostabilizer 0.05 wt %
[4] = Red No. 227 0.0001 wt % + Yellow No. 203 0.0001 wt %, photostabilizer 0.1 wt %
[5] = Red No. 227 0.0001 wt % + Yellow No. 203 0.0001 wt %, photostabilizer 0.3 wt %
[6] = Red No. 227 0.0001 wt %, photostabilizer 0.02 wt %
[7] = Red No. 227 0.0001 wt %, photostabilizer 0.05 wt %
[8] = Red No. 227 0.0001 wt %, photostabilizer 0.1 wt %
[9] = Red No. 401 0.0001 wt % + Blue No. 1 0.00001 wt %, photostabilizer 0.03 wt %
[10] = Red No. 401 0.0001 wt % + Blue No. 1 0.00001 wt %, photostabilizer 0.05 wt %
[11] = Red No. 401 0.0001 wt % + Blue No. 1 0.00001 wt %, photostabilizer 0.1 wt %
[12] = Red No. 401 0.0001 wt % + Green No. 3 0.00001 wt %, photostabilizer 0.03 wt %
[13] = Red No. 401 0.0001 wt % + Green No. 3 0.00001 wt %, photostabilizer 0.05 wt %
[14] = Red No. 401 0.0001 wt % + Green No. 3 0.00001 wt %, photostabilizer 0.3 wt %
[15] = Red No. 401 0.0001 wt %, photostabilizer 0.05 wt %
[16] = Red No. 401 0.0001 wt %, photostabilizer 0.1 wt %
[17] = Red No. 401 0.0001 wt %, photostabilizer 0.3 wt %
[18] = Red No. 401 0.001 wt %, photostabilizer 0.03 wt %
[19] = Red No. 401 0.001 wt %, photostabilizer 0.05 wt %
[20] = Red No. 401 0.001 wt %, photostabilizer 0.1 wt %
[21] = Yellow No. 5 0.0001 wt %, photostabilizer 0.05 wt %
[22] = Yellow No. 5 0.0001 wt %, photostabilizer 0.1 wt %
[23] = Yellow No. 5 0.0001 wt %, photostabilizer 0.3 wt %
[24] = Yellow No. 5 0.001 wt %, photostabilizer 0.01 wt %
[25] = Yellow No. 5 0.001 wt %, photostabilizer 0.05 wt %
[26] = Yellow No. 5 0.001 wt %, photostabilizer 0.1 wt %
[27] = Yellow No. 203 0.0001 wt % + Yellow No. 5 0.0001 wt %, photostabilizer 0.03 wt %
[28] = Yellow No. 203 0.0001 wt % + Yellow No. 5 0.0001 wt %, photostabilizer 0.05 wt %
[29] = Yellow No. 203 0.0001 wt % + Yellow No. 5 0.0001 wt %, photostabilizer 0.1 wt %
[30] = Yellow No. 203 0.0001 wt %, photostabilizer 0.05 wt %
[31] = Yellow No. 203 0.0001 wt %, photostabilizer 0.1 wt %
[32] = Yellow No. 203 0.0001 wt %, photostabilizer 0.3 wt %
[33] = Yellow No. 203 0.001 wt %, photostabilizer 0.02 wt %
[34] = Yellow No. 203 0.001 wt %, photostabilizer 0.05 wt %
[35] = Yellow No. 203 0.001 wt %, photostabilizer 0.1 wt %

With Oc1nncc(N2CCOCC2)c1N1CCOCC1 [4,5-Dimorpholino-3-hydroxypyridazine] the “Sunlight exposure (80 MJ) ΔE” value (Red No. 227 0.0001 wt % + Yellow No. 5 0.0001 wt %, photostabilizer 0.03 wt %) was 0.72, the “Sunlight exposure (80 MJ) Appearance” value [1] was “A” and the “Sunlight exposure (80 MJ) ΔE” value [1] was 0.59. For the same compound, the “Sunlight exposure (80 MJ) Appearance” value [2] was “A”, the “Sunlight exposure (80 MJ) ΔE” value [2] was 0.18 and the “Sunlight exposure (80 MJ) Appearance” value [3] was “A”. The “Sunlight exposure (80 MJ) ΔE” value [3] was 0.78, the “Sunlight exposure (80 MJ) Appearance” value [4] was “A” and the “Sunlight exposure (80 MJ) ΔE” value [4] was 0.35. The “Sunlight exposure (80 MJ) Appearance” value [5] was “A”, the “Sunlight exposure (80 MJ) ΔE” value [5] was 0.14 and the “Sunlight exposure (80 MJ) Appearance” value [6] was “A”. For the same compound, the “Sunlight exposure (80 MJ) ΔE” value [6] was 0.71, the “Sunlight exposure (80 MJ) Appearance” value [7] was “A” and the “Sunlight exposure (80 MJ) ΔE” value [7] was 0.49. The “Sunlight exposure (80 MJ) Appearance” value [8] was “A”, the “Sunlight exposure (80 MJ) ΔE” value [8] was 0.22 and the “Sunlight exposure (80 MJ) Appearance” value [9] was “A”. The “Sunlight exposure (80 MJ) ΔE” value [9] was 0.95, the “Sunlight exposure (80 MJ) Appearance” value [10] was “A” and the “Sunlight exposure (80 MJ) ΔE” value [10] was 0.32. The “Sunlight exposure (80 MJ) Appearance” value [11] was “A”, the “Sunlight exposure (80 MJ) ΔE” value [11] was 0.07 and the “Sunlight exposure (80 MJ) Appearance” value [12] was “A”. The “Sunlight exposure (80 MJ) ΔE” value [12] was 0.98, the “Sunlight exposure (80 MJ) Appearance” value [13] was “A” and the “Sunlight exposure (80 MJ) ΔE” value [13] was 0.73. For the same compound, the “Sunlight exposure (80 MJ) Appearance” value [14] was “A”, the “Sunlight exposure (80 MJ) ΔE” value [14] was 0.14 and the “Sunlight exposure (80 MJ) Appearance” value [15] was “A”. The “Sunlight exposure (80 MJ) ΔE” value [15] was 0.82, the “Sunlight exposure (80 MJ) Appearance” value [16] was “A” and the “Sunlight exposure (80 MJ) ΔE” value [16] was 0.56. The “Sunlight exposure (80 MJ) Appearance” value [17] was “A”, the “Sunlight exposure (80 MJ) ΔE” value [17] was 0.19 and the “Sunlight exposure (80 MJ) Appearance” value [18] was “A”. The “Sunlight exposure (80 MJ) ΔE” value [18] was 0.95, the “Sunlight exposure (80 MJ) Appearance” value [19] was “A” and the “Sunlight exposure (80 MJ) ΔE” value [19] was 0.71. The “Sunlight exposure (80 MJ) Appearance” value [20] was “A”, the “Sunlight exposure (80 MJ) ΔE” value [20] was 0.45 and the “Sunlight exposure (80 MJ) Appearance” value [21] was “A”. The “Sunlight exposure (80 MJ) ΔE” value [21] was 0.59, the “Sunlight exposure (80 MJ) Appearance” value [22] was “A” and the “Sunlight exposure (80 MJ) ΔE” value [22] was 0.71. For the same compound, the “Sunlight exposure (80 MJ) Appearance” value [23] was “A”, the “Sunlight exposure (80 MJ) ΔE” value [23] was 0.22 and the “Sunlight exposure (80 MJ) Appearance” value [24] was “A”. The “Sunlight exposure (80 MJ) ΔE” value [24] was 0.61, the “Sunlight exposure (80 MJ) Appearance” value [25] was “A” and the “Sunlight exposure (80 MJ) ΔE” value [25] was 0.43. For the same compound, the “Sunlight exposure (80 MJ) Appearance” value [26] was “A”, the “Sunlight exposure (80 MJ) ΔE” value [26] was 0.22 and the “Sunlight exposure (80 MJ) Appearance” value [27] was “A”. The “Sunlight exposure (80 MJ) ΔE” value [27] was 0.52, the “Sunlight exposure (80 MJ) Appearance” value [28] was “A” and the “Sunlight exposure (80 MJ) ΔE” value [28] was 0.37. The “Sunlight exposure (80 MJ) Appearance” value [29] was “A”, the “Sunlight exposure (80 MJ) ΔE” value [29] was 0.12 and the “Sunlight exposure (80 MJ) Appearance” value [30] was “A”. For the same compound, the “Sunlight exposure (80 MJ) ΔE” value [30] was 0.22, the “Sunlight exposure (80 MJ) Appearance” value [31] was “A” and the “Sunlight exposure (80 MJ) ΔE” value [31] was 0.10. For the same compound, the “Sunlight exposure (80 MJ) Appearance” value [32] was “A”, the “Sunlight exposure (80 MJ) ΔE” value [32] was 0.05 and the “Sunlight exposure (80 MJ) Appearance” value [33] was “A”. For the same compound, the “Sunlight exposure (80 MJ) ΔE” value [33] was 0.25, the “Sunlight exposure (80 MJ) Appearance” value [34] was “A” and the “Sunlight exposure (80 MJ) ΔE” value [34] was 0.18. The “Sunlight exposure (80 MJ) Appearance” value [35] was “A”, the “Sunlight exposure (80 MJ) ΔE” value [35] was 0.08 and the “change of appearance of the composition” value (summary of Tables 11 to 13) was “small”. For the same compound, the “color difference ΔE” value (summary of Tables 11 to 13) was “very small in comparison with other photostabilizers”.
